How the values were obtained:
[1] = system: spleen and blood immune cells, serum cytokines; experiment: Systemic immune function during HFD feeding (spleen, blood, serum cytokines); type: in vivo, mice; details: HFD vs HFD 5-ASA
Description: (§1) We stained single cell suspensions for 30 min on ice with commercial antibodies. Flow cytometry antibodies including CD45.2 (104), CD3 (145-2C11), CD4 (GK1.5), CD8 (53-6.7), CD25 (PC61), γδTcR (GL3), Foxp3 (150D), IL-17 (TC11-18H10.1), IFNγ XMG1.2), α4β7 (DATK32), CCR9 (CW-1.2), CD11b (M1/70), F4/80 (BM8), CD11c (N418), CD206 (C068C2), Gr-1 (RB6-8C5), IL-7Rα (A7R34), B220 (RA3-6B2), Thy1.2 (30-H12), NKp46 (29A1.4), and Sca-1 (D7) were purchased from Biolegend. Intracellular staining was performed using a Foxp3 staining buffer kit (eBioscience). We acquired data on a Fortessa flow cytometer (BD Biosciences) and analyzed it with FlowJo software (Tree Star). We gated ILCs as described (Kirchberger et al., 2013).
We measured serum cytokines by Luminex Multiplex cytokine assay (Millipore, run by the UHN Microarray Center), and quantified IL-10 and IFN-γ in supernatants of anti-CD3/CD28-stimulated splenocytes or bowel immune cells (Winer et al., 2009b) by ELISA (Biolegend).

[2] = system: colon and small bowel lamina propria T cells; experiment: Flow cytometry of colon and small bowel lamina propria T cells, HFD or HFD 5-ASA; type: in vivo, mice; details: HFD vs HFD 5-ASA 1500 mg/kg/day, 16 weeks
Excerpt: Isolation of bowel immune cells. For isolation of small intestine lamina propria immune cells, we used the protocol described by Fritz et al (Fritz et al., 2012), and processed approximately 10 cm from the distal end of the small intestine (jejunum and ileum). For the isolation of colonic lamina propria immune cells, we used the protocol described by Geddes et al (Geddes et al., 2011). Following lamina propria isolations, we passed immune cells through 70 μm strainers, and used them for flow cytometry.
as §1

[3] = system: VAT T cells and M1 macrophages; experiment: Flow cytometry of VAT immune cells, HFD or HFD 5-ASA; type: in vivo, mice; details: HFD vs HFD 5-ASA 1500 mg/kg/day, 16 weeks
Description: We isolated VAT-associated immune cells as previously described (Winer et al., 2009a).
as §1

[4] = system: Rag1null mice; experiment: Metabolic studies, Rag1null mice on HFD 5-ASA; type: in vivo; details: HFD vs HFD 5-ASA 1500 mg/kg/day, 8 weeks
Description: (§2) Mice. Mice were fed either NCD (15 kcal % fat) or HFD (Research Diets, 60 kcal % fat, irradiated) starting at 6 weeks of age. All studies were performed under the approval of Animal User Protocols by the Animal Care Committee at the University Health Network. Mice were maintained in a pathogen-free, temperature-controlled environment on a 12-hour light and dark cycle. All mice used in comparative studies were male, age-matched, and litter mates where possible.
(§3) We measured body weights, GTTs, ITTs, serum insulin, and fat cell diameter as previously described (Winer et al., 2009a). All GTTs were performed with a 1.5 g/kg glucose i.p. injection unless indicated otherwise.

[5] = system: Beta7null mice; experiment: Metabolic studies, Beta7null mice on HFD 5-ASA; type: in vivo; details: HFD vs HFD 5-ASA, 12 weeks
Description: as §2, §3

[6] = system: endotoxin, anti-LPS IgG; experiment: Endotoxin and anti-LPS IgG measurements; type: in vivo, mice; details: HFD vs HFD 5-ASA, 14 weeks
Excerpt: We measured endotoxin levels in the serum and adipose tissue using Pyrogene Recombinant C endotoxin detection fluorescence kit (Lonza Inc.). We measured mouse serum anti-LPS IgG antibody levels with a commercially available kit (Chrondrex Inc.).

[7] = system: oral tolerance to OVA antigen; experiment: Oral tolerance studies (OVA); type: in vivo, mice; details: HFD 5-ASA vs HFD
Description: We administered oral ovalbumin (OVA) in the form of drinking water (1 mg/mL) for 7 days to NCD-, HFD- or HFD 5-ASA-fed mice to induce oral tolerance. Average consumption was similar across different groups, at 5 mL per day. Following oral tolerance induction, we immunized animals with or without oral tolerance induction subcutaneously with OVA/CFA (50 μg per side) on both sides of the chest. Axillary draining lymph nodes and VAT were collected 7 days following immunization and subjected to immunological analysis, including OVA323-339/I-A^b tetramer staining and OVA-induced cytokine production and proliferation in vitro. Briefly, we processed axillary lymph nodes into single-cell suspension through a 70 μm filter and cultured the cells (5×10^5/well) in 96-well U-bottom plate with indicated concentrations of OVA (Sigma). We collected culture supernatants at 48 h for determination of IL-2 and IFNγ via ELISA (Biolegend). To measure OVA-specific antibody responses, we performed ELISA by plating diluted serum samples (1:200-1:4000) onto OVA-coated ELISA plates (10 μg/mL), followed by biotinylated anti-mouse isotype-specific secondary antibodies (1:5000 dilution) (Southern Biotech) and HRP-conjugated streptavidin (Biolegend). To measure-OVA-specific Tregs, we stained VAT immune cells with a 1:200 dilution of PE-conjugated OVA323-339/I-A^b or control hCLIP/I-A^b tetramers (NIH Tetramer Core Facility) in FBS-supplemented RPM-I for 4 hours at 37° C., followed by antibody staining for other surface antigens and Foxp3.

[8] = system: gut epithelial barrier; details: models of IBD (Di Paolo et al., 1996; Liu et al., 2009); cited from earlier work

## Nc1ccc(O)c(C(=O)O)c1 [5-ASA, 5-aminosalicylic acid]
[1]; 14 weeks
  circulating immune cell polarity in the blood: no effects
  immune cell populations in the spleen: no effects
[1]; Luminex, 23 cytokines, 14 weeks
  serum levels of cytokines: mostly unchanged
[1]; Luminex, 14 weeks
  serum RANTES: significant but small increase
  serum TNFα: reduction
[1]; cultured splenocytes, anti-CD3/CD28 48 hrs
  stimulated spleen immune cell cytokine secretion: no effects
[2]; colon and small bowel
  IFNγ-secreting CD8+ T cells: reduction
  IL-17-secreting γδ T cells: reduction
  Th1 cells: reduction
[2]; small bowel
  Tregs: significant increase
[3]
  Tregs in VAT: increasing
  percentages of IFNγ-secreting CD8+ T cells in VAT: reducing
  percentages of M1 inflammatory macrophages in VAT: reducing
  percentages of Th1 cells in VAT: reducing
[4]
  IR: no effect
  body weight: no effect
  glucose tolerance: no effect
[5]
  IR: no major effects
  glucose tolerance: no major effects
[6]
  IgG responses to LPS (serum anti-LPS IgG): markedly diminished
  VAT endotoxin levels: trended lower
  serum endotoxin: reduced
[7]; oral OVA then OVA-CFA immunization
  OVA-specific IgA: nearly threefold increase
[7]; OVA/I-Ab tetramers
  antigen-specific Tregs to OVA in VAT: nearly fourfold increase
[7]; draining lymph nodes
  OVA-specific T cell-derived IFNγ: reduction
  OVA-specific T cell-derived IL-2: reduction
[8]
  intactness of the gut epithelial barrier: beneficial effects

Reference: patent US20180193361A1, “GUT ANTI-INFLAMMATORY AGENTS FOR REGULATION OF HIGH BLOOD GLUCOSE LEVELS” (UNIVERSITY HEALTH NETWORK, priority 2015, published 2018)
